Experimental findings from patent US7105505B2, “Benzimidazole derivatives useful as histamine H3 antagonists” (Schering Corporation, priority 2002, dated 2006) are described below.

Each structure is given as a SMILES string.

The target of the first test is T1, H3 receptors (Cavia porcellus, UniProt Q9JI35).
T1 construct: The source of the H3 receptors in this experiment was guinea pig brain; from tissue; host or cells: guinea pig brain membranes
T1 sequence (Q9JI35 whole entry): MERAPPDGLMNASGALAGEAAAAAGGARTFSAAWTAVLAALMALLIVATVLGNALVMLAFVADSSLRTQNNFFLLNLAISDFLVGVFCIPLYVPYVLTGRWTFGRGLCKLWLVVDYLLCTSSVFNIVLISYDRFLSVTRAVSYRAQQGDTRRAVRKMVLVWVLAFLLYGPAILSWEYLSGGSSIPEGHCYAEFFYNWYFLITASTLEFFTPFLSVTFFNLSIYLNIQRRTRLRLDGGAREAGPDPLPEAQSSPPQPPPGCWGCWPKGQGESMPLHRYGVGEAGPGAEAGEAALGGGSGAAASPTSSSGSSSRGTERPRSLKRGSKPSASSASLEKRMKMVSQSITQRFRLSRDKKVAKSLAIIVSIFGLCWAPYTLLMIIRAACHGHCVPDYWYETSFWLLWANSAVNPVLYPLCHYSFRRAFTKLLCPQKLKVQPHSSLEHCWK
The experiment in a line: H3 Receptor Binding Assay (guinea pig brain membranes). To be noted: Receptor Source Guinea pig, [3H]R-α-methyl histamine or [3H]Nα-methyl histamine. The protocol: General Procedure for H3Receptor Binding Assay
The source of the H3 receptors in this experiment was guinea pig brain. The animals weighed 400–600 g. The brain tissue was homogenized with a solution of 50 mM Tris, pH 7.5. The final concentration of tissue in the homogenization buffer was 10% w/v. The homogenates were centrifuged at 1,000×g for 10 min. in order to remove clumps of tissue and debris. The resulting supernatants were then centrifuged at 50,000×g for 20 min. in order to sediment the membranes, which were next washed three times in homogenization buffer (50,000×g for 20 min. each). The membranes were frozen and stored at −70° C. until needed.
All compounds to be tested were dissolved in DMSO and then diluted into the binding buffer (50 mM Tris, pH 7.5) such that the final concentration was 2 μg/ml with 0.1% DMSO. Membranes were then added (400 μg of protein) to the reaction tubes. The reaction was started by the addition of 3 nM [^3H]R-α-methyl histamine (8.8 Ci/mmol) or 3 nM [^3H]N^α-methyl histamine (80 Ci/mmol) and continued under incubation at 30° C. for 30 min. Bound ligand was separated from unbound ligand by filtration, and the amount of radioactive ligand bound to the membranes was quantitated by liquid scintillation spectrometry. All incubations were performed in duplicate and the standard error was always less than 10%. Compounds that inhibited more than 70% of the specific binding of radioactive ligand to the receptor were serially diluted to determine a Ki (nM).
For the compound `Nc1cc(CN2CCC(C(=O)N3CCC(n4c(-c5cc(Cl)cc(Cl)c5)nc5ccc(Cl)cc54)CC3)CC2)ccn1` [Example 54], the Ki – broadly, a dissociation constant, usually derived from enzyme kinetics or from competition with a known ligand – stood at 30 nM. On the same count and under the same terms, with `Nc1cc(CN2CCC(C(=O)N3CCC(n4c(N5CCOCC5)nc5cc(F)ccc54)CC3)CC2)ccn1` [Example 120] the figure was 0.3 nM; with `Nc1cc(CN2CCC(C(=O)N3CCC(n4c(-c5ccccn5)nc5cc(F)c(F)cc54)CC3)CC2)ccn1` [Example 71], 1 nM. Still for that read-out and setting: with `Nc1cc(CN2CCC(C(=O)N3CCC(c4nc5ccc(Cl)cc5[nH]4)CC3)CC2)ccn1` [Example 3] the figure was 13 nM; with `Cc1cc(-c2nc3cc(F)ccc3n2C2CCN(C(=O)C3CCN(Cc4ccnc(N)c4)CC3)CC2)no1` [Example 94], 1 nM. On the same count and under the same terms, for `Nc1ncc(CN2CCC(C(=O)N3CCC(n4c(-c5ccccn5)nc5cc(F)ccc54)CC3)CC2)cn1` [Example 211] the value was 7 nM; for `Nc1cc(CN2CCC(C(=O)N3CCC(n4c(-c5ccc(F)cc5)nc5cccnc54)CC3)CC2)ccn1` [Example 173], 0.4 nM.

`Nc1cc(CN2CCC(C(=O)N3CCC(n4c(-c5cc(-c6ccc(F)cc6)on5)nc5cccnc54)CC3)CC2)ccn1` [Example 195] had a Ki of 10 nM. The same measure, in the same setting: for `Nc1ncc(CN2CCC(F)(C(=O)N3CCC(n4c(-c5ccc(F)cc5F)nc5cc(F)ccc54)CC3)CC2)cn1` [Example 254] the value was 13 nM; for `Nc1cc(CN2CCC(C(=O)N3CCC(n4c(C5CC5)nc5cccnc54)CC3)CC2)ccn1` [Example 170], 0.5 nM.

The target of a further test is T2, human histamine H3 receptor (Homo sapiens, UniProt Q9Y5N1).
T2 construct: expressed in transfected cells
T2 sequence (Q9Y5N1 whole entry): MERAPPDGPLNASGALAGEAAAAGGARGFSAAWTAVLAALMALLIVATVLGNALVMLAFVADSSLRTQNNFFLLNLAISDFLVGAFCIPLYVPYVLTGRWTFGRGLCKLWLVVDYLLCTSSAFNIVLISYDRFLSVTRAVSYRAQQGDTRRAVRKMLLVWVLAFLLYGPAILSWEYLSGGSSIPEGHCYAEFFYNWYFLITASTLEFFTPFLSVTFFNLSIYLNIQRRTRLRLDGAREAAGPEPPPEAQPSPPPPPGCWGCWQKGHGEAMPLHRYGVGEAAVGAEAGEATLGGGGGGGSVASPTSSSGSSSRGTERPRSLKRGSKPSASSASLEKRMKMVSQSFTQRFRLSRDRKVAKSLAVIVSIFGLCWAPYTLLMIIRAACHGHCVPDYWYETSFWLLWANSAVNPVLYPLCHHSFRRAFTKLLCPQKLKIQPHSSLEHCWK
As to the kind of experiment: rHu H3 Binding Assay (HEK-293 membranes). Conditions: Receptor Source rHu, 1.2 nM [3H]Nα-methylhistamine. As for the experimental part:
General Procedure for rHu H3Binding Assay
[^3H]N^∝-methylhistamine (82 Ci/mmole) was obtained from Dupont NEN. Thioperamide was obtained from the Chemical Research Department, Schering-Plough Research Institute.
HEK-293 human embryonic kidney cells stably expressing the human histamine H3 receptor were cultured in Dulbecco's modified Eagle's medium/10% fetal calf serum/penicillin (100 U/ml)/streptomycin (100 μg/ml)/Geneticin (0.5 mg/ml) at 37° C. in a humidified 5% CO2 atmosphere. Cells were harvested between passages five and twenty at 37° C. in 5 mM EDTA/Hank's balanced salt solution and processed for membrane preparation. After low-speed centrifugation, ten min at 1000×g, they were put into ten volumes of ice-cold buffer and disrupted with a Polytron (PTA 35/2 tip, 30 sec at setting 6). After subsequent low-speed centrifugation, supernatant was centrifuged ten min at 50,000×g. The high-speed pellet was resuspended in the original volume of buffer, a sample was taken for protein assay (bicinchoninic acid, Pierce) and the suspension was centrifuged again at 50,000×g. Membranes were resuspended at 1 mg of protein/ml of buffer and frozen at −80° C. until use.
Membrane (15 μg of protein) was incubated with 1.2 nM [^3H]N^∝-methyl-histamine, without or with inhibitor compounds, in a total volume of 200 μl of buffer. Nonspecific binding was determined in the presence of 10^−5 M thioperamide. Assay mixtures were incubated for 30 min at 30° C. in polypropylene, 96-well, deep-well plates, then filtered through 0.3% polyethylenimine-soaked GF/B filters. These were washed three times with 1.2 ml of 4° C. buffer, dried in a microwave oven, impregnated with Meltilex wax scintillant and counted at 40% efficiency in a Betaplate scintillation counter (Wallac).
IC50 values were interpolated from the data or were determined from curves fit to the data with Prism nonlinear least squares curve-fitting program (GraphPad Software, San Diego, Calif.). Ki values were determined from IC50 values according to the Cheng and Prusoff equation.
`CCc1nc2cc(F)ccc2n1C1CCN(C(=O)C2(F)CCN(Cc3cnc(N)nc3)CC2)CC1` [Example 468] yielded a Ki of 10 nM. Same read-out and setting: for `CCOc1nc2cc(F)ccc2n1C1CCN(C(=O)C2CCN(Cc3ccnnc3)CC2)CC1` [Example 512] the value was 2 nM; for `COc1nc2cc(F)ccc2n1C1CCN(C(=O)C2(F)CCN(Cc3cnc(N)nc3)CC2)CC1` [Example 297], 4 nM. Still for that read-out and setting: with `Nc1ncc(CN2CCC(C(=O)N3CCC(n4c(SCc5ccccc5)nc5cc(F)ccc54)CC3)CC2)cn1` [Example 547] the figure was 14 nM; with `CSc1nc2cc(S(C)(=O)=O)ccc2n1C1CCN(C(=O)C2CCN(Cc3ccnnc3)CC2)CC1` [Example 595], 41 nM.

For `CCCc1nc2cc(F)ccc2n1C1CCN(C(=O)C2CCN(Cc3ccnnc3)CC2)CC1` [Example 619], the Ki worked out at 2 nM. This Ki lies about 20-fold lower than the previous one.

On to `O=C(N1CCC(n2c(-c3ccccn3)nc3cc(F)ccc32)CC1)C1(F)CCN(Cc2ccnnc2)CC1` [Example 423], for which the Ki was 5 nM. Still for that read-out and setting: for `O=C(C1CCN(Cc2ccnnc2)CC1)N1CCC(n2c(-c3ccccn3)nc3cc(Cl)ccc32)CC1` [Example 557] the value was 19 nM; for `CSc1nc2cc(F)ccc2n1C1CCN(C(=O)C2CCN(Cc3ccnnc3)CC2)CC1` [Example 493], 1 nM; for `CSc1nc2cccnc2n1C1CCN(C(=O)C2(F)CCN(Cc3cnc(N)nc3)CC2)CC1` [Example 315], 5 nM. Same read-out and setting: with `CC(C)Oc1nc2cc(F)ccc2n1C1CCN(C(=O)C2(F)CCN(Cc3cnc(N)nc3)CC2)CC1` [Example 326] the figure was 2 nM; with `CSc1nc2cc(F)ccc2n1C1CCN(C(=O)C2CCN(Cc3cnc(N)nc3)CC2)CC1` [Example 269], 4 nM. The same measure, in the same setting: with `Nc1ncc(CN2CCC(F)(C(=O)N3CCC(n4c(-c5ccoc5)nc5cccnc54)CC3)CC2)cn1` [Example 281] the figure was 4 nM; with `Nc1ncc(CN2CCC(F)(C(=O)N3CCC(n4c(Oc5ccccc5)nc5cc(F)ccc54)CC3)CC2)cn1` [Example 449], 1 nM.

`Nc1cc(CN2CCC(C(=O)N3CCC(n4c(-c5ccccn5)nc5cc(F)ccc54)CC3)CC2)ccn1` [Example 1]: the Ki was determined as 1 nM. Same read-out and setting: with `COc1nc2cc(F)ccc2n1C1CCN(C(=O)C2CCN(Cc3ccnnc3)CC2)CC1` [Example 571] the figure was 2 nM; with `Nc1cc(CN2CCC(F)(C(=O)N3CCC(n4c(N5CCOCC5)nc5cc(F)ccc54)CC3)CC2)ccn1` [Example 165], 2 nM; with `Nc1cc(CCCN2CCC(C(=O)N3CCC(n4c(-c5ccccn5)nc5cccnc54)CC3)CC2)ccn1` [Example 608], 1 nM.

As for `CCCOc1nc2cccnc2n1C1CCN(C(=O)C2CCN(Cc3ccnnc3)CC2)CC1` [Example 552], the affinity, expressed as Ki, was 4 nM. Same read-out and setting: with `Nc1ncc(CN2CCC(F)(C(=O)N3CCC(n4c(-c5ccccn5)nc5cccnc54)CC3)CC2)cn1` [Example 5] the figure was 9 nM. Same read-out and setting: with `CSc1nc2cc(F)ccc2n1C1CCN(C(=O)C2CCN(Cc3ccnc(N)c3)CC2)CC1` [Example 109] the figure was 1 nM. Same read-out and setting: with `CCOc1nc2cc(Cl)ccc2n1C1CCN(C(=O)C2CCN(Cc3ccnnc3)CC2)CC1` [Example 592] the figure was 9 nM; with `CSc1nc2cc(Cl)ccc2n1C1CCN(C(=O)C2(F)CCN(Cc3cnc(N)nc3)CC2)CC1` [Example 625], 10 nM. Turning to `CSc1nc2cc(Cl)ccc2n1C1CCN(C(=O)C2CCN(Cc3ccnnc3)CC2)CC1` [Example 628], the inhibition constant Ki came to 4 nM. The same measure, in the same setting: with `CCSc1nc2cc(C(F)(F)F)ccc2n1C1CCN(C(=O)C2CCN(Cc3cnc(N)nc3)CC2)CC1` [Example 577] the figure was 44 nM; with `CSc1nc2cc(Cl)ccc2n1C1CCN(C(=O)C2CCN(Cc3cnc(N)nc3)CC2)CC1` [Example 502], 7 nM; with `Nc1ncc(CN2CCC(F)(C(=O)N3CCC(n4c(-c5cccc[n+]5[O-])nc5cccnc54)CC3)CC2)cn1` [Example 388], 30 nM. In turn, `CCCc1nc2cc(F)ccc2n1C1CCN(C(=O)C2CCN(Cc3cnc(N)nc3)CC2)CC1` [Example 618] came in with a Ki of 9 nM. Same read-out and setting: with `CSc1nc2cc(F)ccc2n1C1CCN(C(=O)C2(F)CCN(Cc3cnc(N)nc3)CC2)CC1` [Example 290] the figure was 3 nM; with `CCCOc1nc2cc(F)ccc2n1C1CCN(C(=O)C2(F)CCN(Cc3cnc(N)nc3)CC2)CC1` [Example 459], 4 nM; with `CCOc1nc2cc(F)ccc2n1C1CCN(C(=O)C2(F)CCN(Cc3cnc(N)nc3)CC2)CC1` [Example 270], 4 nM. Still for that read-out and setting: with `CSc1nc2cc(F)c(F)cc2n1C1CCN(C(=O)C2(F)CCN(Cc3ccnc(N)c3)CC2)CC1` [Example 574] the figure was 2 nM; with `O=C(C1CCN(Cc2cc[nH]n2)CC1)N1CCC(n2c(-c3ccccn3)nc3cc(F)ccc32)CC1` [Example 442], 1 nM. Still for that read-out and setting: for `CCCSc1nc2cccnc2n1C1CCN(C(=O)C2CCN(Cc3ccnnc3)CC2)CC1` [Example 588] the value was 6 nM; for `CCOc1nc2cccnc2n1C1CCN(C(=O)C2(F)CCN(Cc3cnc(N)nc3)CC2)CC1` [Example 316], 5 nM; for `CCCOc1nc2cc(F)ccc2n1C1CCN(C(=O)C2CCN(Cc3cnc(N)nc3)CC2)CC1` [Example 460], 4 nM. Regarding `CCc1nc2cc(F)ccc2n1C1CCN(C(=O)C2CCN(Cc3cnc(N)nc3)CC2)CC1` [Example 598], the Ki came to 17 nM. Compared with the last compound, the Ki is about 4.2-fold higher.
